The test system of one assay is TCR of MAIT cells. Put plainly: co-expression reporter cell assay: NFAT-GFP expression on activation of MAIT TCR. The assay is classed as cell-based. To be noted: 37°C, 6-20 hr, GFP by flow cytometry. The text has this: (§1) MAIT TCR genes and MR1 molecules genes were synthesized from mouse (Tiloy et al, J Exp Med. 1999) or human (4L4T, Protein Data Bank) and inserted into retroviral vectors (pMX-IRES-ratCD2, pMX-IRES-humanCD8), respectively. These plasmids were co-introduced into Phoenix packaging cells by using PEI MAX (Polysciences). […] MAIT TCR and MR1 co-expressing T cells (hereinafter also referred to as "co-expression reporter cells") were selected using antimouse TCRβ (H57-597), anti-human CD3 (HIT3a), and anti-human/mouse/rat MR1 (26.5) antibodies.
(§2) The validation experiment evaluated GFP expression and MR1 molecule surface expression 6 hr after stimulation of co-expression reporter cells with vehicle control, 5-OP-RU, and Ac-6-FP. GFP was evaluated by flow cytometry. MR1 molecule surface expression was represented by the MFI value of the stimulated cells.
(§3) In the above-mentioned screening, to stimulate "co-expression reporter cells," tissue extract samples and synthetic compounds were dissolved in water and added to each well of a 96-well plate in the absence of methylglyoxal. Some water-insoluble samples were dissolved in ethanol or chloroform/methanol (2:1, vol/vol) and coated onto the plates. "Co-expression reporter cells" (1-3×10^4 cells/100 µL/well) were cultured at 37°C for 6-20 hr, and the expression of GFP and MR1 molecules was analyzed by flow cytometry.

The next assay concerns MR1 molecule. The assay is described as follows: co-expression reporter cell assay: MR1 surface expression by flow cytometry. It counts as cell-based. To be noted: co-expression reporter cells, 37°C, 6-20 hr, MFI by flow cytometry. As for the experimental part:
These plasmids were co-introduced into Phoenix packaging cells by using PEI MAX (Polysciences).
as §2, §3
For orientation: In flow cytometry, cells or beads pass a laser one at a time.

Assay [1] concerns Human peripheral blood mononuclear cells (PBMCs). The assay is described as follows: sc-TCR-RNA-seq analysis of stimulated PBMCs. The assay is classed as cell-based. The conditions noted are these: PBMCs stimulated for several days; for gene expression signature (induced genes): in contrast to 5-OP-RU; for TCR expressed by surviving MAIT cells: TRAV1-2-TRAJ33/12/20:TRBV6-4/6-1/20-1. The protocol: Human peripheral blood mononuclear cells (PBMCs) were stimulated with CA7S and CA3S for several days, and then sc-TCR-RNA-seq analysis was performed.

Assay [2] relates to MAIT TCRs derived from mouse (m). Put plainly: reporter cell assay with mouse-derived MAIT TCR, mouse or human MR1. It counts as cell-based. To be noted: regardless of the species of the MR1 molecule.
Excerpt: as §1
as §3, with “cytometry. The same procedure was performed in the subsequent Examples. • (2) To determine the chemical structure of the activation molecule contained in fraction #84, this fraction was further purified by hydrophilic interaction chromatography (HILIC), and a single fraction (named #84-45) was recovered. […]” for “cytometry.”

Assay [3] deals with MAIT TCRs derived from human (h). Put plainly: reporter cell assay with human-derived MAIT TCR, mouse or human MR1. The conditions noted are these: regardless of the species of the MR1 molecule. The assay is classed as cell-based.
Excerpt: as §1
as §3, with “cytometry. The same procedure was performed in the subsequent Examples. • (2) To determine the chemical structure of the activation molecule contained in fraction #84, this fraction was further purified by hydrophilic interaction chromatography (HILIC), and a single fraction (named #84-45) was recovered. […]” for “cytometry.”

Assay [4] deals with MAIT cells in MR1-5-OP-RU tetramer-enriched thymocytes. Put plainly: flow cytometry of thymic MAIT cells after administration to Sult2a-deficient mice. It counts as in vivo, mouse. To be noted: 2-4 week old Sult2a-deficient mice administered with CA7S versus not administered. The protocol: The expression of MAIT cells in MR1-5-OP-RU tetramer-enriched thymocytes was analyzed by flow cytometry in 2-4 week old wild-type mice, Sult2a-deficient mice administered with CA7S, and Sult2a-deficient mice not administered with CA7S.
The data were obtained from experiments using three or more mice per group. *P<0.05, **P<0.01, P***<0.005, one-way ANOVA and Tukey's multiple comparison test were used.

“Also recorded” adds a separate entry of the source.

Consider `CC(=O)C=Nc1c(NC[C@H](O)[C@H](O)[C@H](O)CO)[nH]c(=O)[nH]c1=O` [Analog 5-OP-RU, 5-(2-Oxopropylidene-amino)-6-D-ribitylaminouracil, reference compound], for which the “activation of the TCR of MAIT cells (GFP expression)” value (“activation of the TCR of MAIT cells” below) in the assay with TCR of MAIT cells is recorded as “dose-dependently enhanced GFP expression”.

As for `C[C@H](CCC(=O)O)[C@H]1CC[C@H]2[C@@H]3[C@H](O)C[C@@H]4C[C@H](OS(=O)(=O)O)CC[C@]4(C)[C@H]3C[C@H](O)[C@]12C` [CA3S, cholic acid 3-sulfate], the “activation of the TCR of MAIT cells” value with TCR of MAIT cells is recorded as “activated MAIT reporter cells in the presence of MR1 molecules”. For the same compound, the “expression of MR1 molecules on the T cell surface” value (shortened to “expression of MR1 molecules”) in the assay on MR1 molecule is “similarly increased the expression of the MR1 molecule on the T cell surface”. In assay [1], the “gene expression signature (induced genes)” value is “induced genes involved in homeostasis maintenance, such as IL7R, KLF2, and TCF7”; the “TCR expressed by surviving MAIT cells” value is given as “expressed a representative MAIT TCR”.

As for `C[C@H](CCC(=O)O)[C@H]1CC[C@H]2[C@@H]3[C@H](OS(=O)(=O)O)C[C@@H]4C[C@H](O)CC[C@]4(C)[C@H]3C[C@H](O)[C@]12C` [CA7S, cholic acid 7-sulfate], the “activation of the TCR of MAIT cells” value with TCR of MAIT cells is given as “activated reporter cells expressing MAIT TCR; also recorded: weak agonist”. The “activation of MAIT TCR derived from mouse (m)” value in assay [2] is listed as “activated”. The “activation of MAIT TCR derived from human (h)” value in assay [3] was “activated”. Also, the “expression of MR1 molecules” value in the assay on MR1 molecule was “similarly increased the expression of the MR1 molecule on the T cell surface”. In addition, in assay [4], the “MAIT cells in thymocytes” value was “restored MAIT cells”. Also, in assay [1], the “gene expression signature (induced genes)” value is “induced genes involved in homeostasis maintenance, such as IL7R, KLF2, and TCF7”; the “TCR expressed by surviving MAIT cells” value is given as “expressed a representative MAIT TCR”.

For `C[C@H](CCC(=O)O)[C@H]1CC[C@H]2[C@@H]3[C@H](O)C[C@@H]4C[C@H](O)CC[C@]4(C)[C@H]3C[C@H](OS(=O)(=O)O)[C@]12C` [CA12S], in the assay with TCR of MAIT cells, the “activation of the TCR of MAIT cells” value is given as “did not”. Moreover, the “expression of MR1 molecules” value in the assay on MR1 molecule was “similarly increased the expression of the MR1 molecule on the T cell surface”.

For `C[C@H](CCC(=O)O)[C@H]1CC[C@H]2[C@@H]3[C@H](O)C[C@@H]4C[C@H](O)CC[C@]4(C)[C@H]3C[C@H](O)[C@]12C` [CA, cholic acid, reference compound], the “activation of the TCR of MAIT cells” value with TCR of MAIT cells is recorded as “did not activate”. In addition, the “expression of MR1 molecules” value in the assay on MR1 molecule is reported as “did not activate”.

Consider `C[C@H](CCC(=O)O)[C@H]1CC[C@H]2[C@@H]3CC[C@@H]4C[C@H](OS(=O)(=O)O)CC[C@]4(C)[C@H]3C[C@H](O)[C@]12C` [DCA3S, deoxy-CA3S, reference compound], for which the “activation of the TCR of MAIT cells” value with TCR of MAIT cells is reported as “did not show activity in reporter cells”.

Consider `C[C@H](CCC(=O)O)[C@H]1CC[C@H]2[C@@H]3CC[C@@H]4C[C@H](OS(=O)(=O)O)CC[C@]4(C)[C@H]3CC[C@]12C` [LCA3S, litho-CA3S, reference compound], for which, in the assay on TCR of MAIT cells, the “activation of the TCR of MAIT cells” value is on record as “did not show activity in reporter cells”.

With `C[C@H](CCC(=O)NCCS(=O)(=O)O)[C@H]1CC[C@H]2[C@@H]3[C@H](O)C[C@@H]4C[C@H](OS(=O)(=O)O)CC[C@]4(C)[C@H]3C[C@H](O)[C@]12C` [TCA3S], in the assay with TCR of MAIT cells, the “activation of the TCR of MAIT cells” value is “showed no activity”. Further, the “expression of MR1 molecules” value with MR1 molecule is reported as “showed no activity”.

Take `C[C@H](CCC(=O)NCCS(=O)(=O)O)[C@H]1CC[C@H]2[C@@H]3[C@H](OS(=O)(=O)O)C[C@@H]4C[C@H](O)CC[C@]4(C)[C@H]3C[C@H](O)[C@]12C` [TCA7S]: the “activation of the TCR of MAIT cells” value with TCR of MAIT cells was “showed no activity”. Besides, the “expression of MR1 molecules” value in the assay with MR1 molecule was “showed no activity”.

Take `C[C@H](CCC(=O)NCCS(=O)(=O)O)[C@H]1CC[C@H]2[C@@H]3CC[C@@H]4C[C@H](OS(=O)(=O)O)CC[C@]4(C)[C@H]3CC[C@]12C` [TLCA3S, taurolitho-CA3S, reference compound]: the “activation of the TCR of MAIT cells” value with TCR of MAIT cells is “did not show activity in reporter cells”.

Values taken from patent EP4803630A1, “CELL FOR IDENTIFYING MAIT CELL LIGAND, AND METHOD FOR SCREENING MAIT CELL LIGAND USING SAID CELL” (The University of Osaka, priority 2023, dated 2025).
